Our source for the ΔTm and inhibition values is ChEMBL document CHEMBL4376829, “Discovery and biological evaluation of vinylsulfonamide derivatives as highly potent, covalent TEAD autopalmitoylation inhibitors” (Eur J Med Chem, 2019).

In experiment [1] the target is T1, Transcriptional enhancer factor TEF-3 (Homo sapiens, UniProt Q15561). The experiment in a line: Binding affinity to N-terminal His6-tagged human TEAD4-YBD (217 to 434 residues) expressed in Escherichia coli C43 (DE3) cells assessed as change in melting temperature at 1:4 ratio by SYPRO-dye based thermal shift assay.
Experiment [2] relates to Transcriptional enhancer factor TEF-3 (Homo sapiens), Q15561 [C330A]. The experiment in a line: Binding affinity to TEAD4-YBD C330A mutant (unknown origin) assessed as change in melting temperature by SYPRO-dye based thermal shift assay.
The species named for experiment [3] is Homo sapiens. In words: Inhibition of TEAD transcriptional activity in human HCT116 cells assessed as reduction in CTGF expression by qRT-PCR analysis. It counts as cell-based. (In general: In qPCR the cycle at which signal appears reflects the starting amount.)
In experiment [4] the target is T1, Transcriptional enhancer factor TEF-3. The experiment in a line: Inhibition of human HEK293T cells derived YAP interaction with N-terminal His-tagged human TEAD4 YBD domain (217 to 434 residues) expressed in Escherichia coli C43 (DE3) cells at 25 to 200 uM incubated for 2 hrs with TEAD4 followed by YAP lysate addition and measured after 4 hrs by immunoblotting analysis. In general terms: Immunoblotting shows a protein as a band on a membrane.

Experiment [5] concerns the target Tyrosine-protein kinase ITK/TSK (Homo sapiens) (UniProt Q08881). The experiment in a line: Inhibition of recombinant human ITK (352 to 617 residues) at 10 uM using myelin basic protein as substrate measured after 40 mins in presence of [gamm33P]ATP by scintillation counting method relative to control.
Experiment [6] is filed under the species Homo sapiens. The experiment in a line: Inhibition of human Ros V2262A mutant(1883 to end residues) at 10 uM using KKKSPGEYVNIEFG as substrate measured after 40 mins in presence of [gamma33P]ATP by scintillation counting method relative to control.
The target in experiment [7] is Serine/threonine-protein kinase N2 (Homo sapiens) (UniProt Q16513). The experiment in a line: Inhibition of human PRK2 (501 to end residues) at 10 uM using AKRRRLSSLRA as substrate measured after 40 mins in presence of [gamma33P]ATP by scintillation counting method relative to control.
The species entered for experiment [8] is Homo sapiens. The experiment in a line: Inhibition of recombinant human Plk4 S34T mutant (1 to 273 residues) at 10 uM using casein as substrate measured after 120 mins in presence of [gamma33P]ATP by scintillation counting method relative to control.
The target of experiment [9] is Insulin receptor (Homo sapiens) (UniProt P06213). The experiment in a line: Inhibition of recombinant human IR activated (1005 to 1310 residues) at 10 uM using KKSRGDYMTMQIG as substrate after 40 mins in presence of [gamma33P]ATP by scintillation counting method relative to control.
Experiment [10] addresses Interferon-induced, double-stranded RNA-activated protein kinase (Homo sapiens) (UniProt P19525). In words: Inhibition of recombinant human PKR (252 to end residues) at 10 uM using RSRSRSRSRSRSRSR as substrate measured after 40 mins in presence of [gamma33P]ATP by scintillation counting method relative to control.
Experiment [11] deals with Protein kinase C iota type (Homo sapiens) (UniProt P41743). The experiment in a line: Inhibition of full-length recombinant human PKCiota at 10 uM using ERMRPRKRQGSVRRRV as substrate after 40 mins by in presence of [gamma33P]ATP by scintillation counting method relative to control.
Experiment [12] deals with Platelet-derived growth factor receptor alpha (Homo sapiens) (UniProt P16234). In words: Inhibition of recombinant human PDGFRalpha (550 to end residues) at 10 uM using poly(Glu, Tyr) 4:1 as substrate measured after 40 mins in presence of [gamma33P]ATP by scintillation counting method relative to control.
For experiment [13], the target named is Serine/threonine-protein kinase Nek1 (Homo sapiens) (UniProt Q96PY6). The experiment in a line: Inhibition of recombinant human NEK1 (1 to 505 residues) at 10 uM using RLGRDKYKTLRQIRQ as substrate measured after 40 mins in presence of [gamma33P]ATP by scintillation counting method relative to control.
In experiment [14] the target is Myosin-IIIb (Homo sapiens) (UniProt Q8WXR4). The experiment in a line: Inhibition of recombinant full-length human MYO3B (1 to 326 residues) at 10 uM using RLGRDKYKTLRQIRQ as substrate measured after 40 mins in presence of [gamma33P]ATP by scintillation counting method relative to control.
Experiment [15] addresses CDK9/cyclin T1 (Homo sapiens) (UniProt O60563+P50750). The experiment in a line: Inhibition of recombinant full length human CDK9/cyclinT1 at 10 uM using KTFCGTPEYLAPEVRREPRILSEEEQEMFRDFDYIADWC as substrate measured after 40 mins in presence of [gamma33P]ATP by scintillation counting method relative to control. It counts as protein-complex assay.
The species entered for experiment [16] is Homo sapiens. In words: Inhibition of recombinant human Mer H628Q/R794A mutant (557 to 882 residues) at 10 uM using GGMEDIYFEFMGGKKK as substrate measured after 40 mins in presence of [gamma33P]ATP by scintillation counting method relative to control.
In experiment [17] the target is Leucine-rich repeat serine/threonine-protein kinase 2 (Homo sapiens) (UniProt Q5S007). The experiment in a line: Inhibition of recombinant human LRRK2 (970 to end residues) at 10 uM using RLGRDKYKTLRQIRQ as substrate measured after 40 mins in presence of [gamma33P]ATP by scintillation counting method relative to control.
In experiment [18] the target is Serine-protein kinase ATM (Homo sapiens) (UniProt Q13315). In words: Inhibition of recombinant full-length human ATM at 10 uM using GST-cMyc-p53 as substrate measured after 40 mins by ELISA method relative to control.
For experiment [19], the target named is 5'-AMP-activated protein kinase catalytic subunit alpha-2 (Homo sapiens) (UniProt P54646). The experiment in a line: Inhibition of recombinant full length human AMPKalpha2 at 10 uM using AMARAASAAALARRR as substrate after 40 mins in presence of [gamma33P]ATP by scintillation counting method relative to control.
In experiment [20] the target is Activin receptor type-2A (Homo sapiens) (UniProt P27037). In words: Inhibition of recombinant human ACTR2 (162 to end residues) at 10 uM using casein as substrate after 120 mins in presence of [gamma33P]ATP by scintillation counting method relative to control.
Experiment [21] addresses Tyrosine-protein kinase ABL1 (Homo sapiens) (UniProt P00519). The experiment in a line: Inhibition of human Abl (27 to end residues) at 10 uM using EAIYAAPFAKKK as substrate after 40 mins in presence of [gamma33P]ATP by scintillation counting method relative to control.
The target in experiment [22] is Serine/threonine-protein kinase ULK1 (Homo sapiens) (UniProt O75385). The experiment in a line: Inhibition of recombinant human ULK1 (1 to 314 residues) at 10 uM using casein as substrate measured after 40 mins in presence of [gamm33P]ATP by scintillation counting method relative to control.
The target of experiment [23] is Serine/threonine-protein kinase VRK1 (Homo sapiens) (UniProt Q99986). The experiment in a line: Inhibition of human VRK1 at 10 uM by radiometric assay relative to control.
Experiment [24] has as its target Wee1-like protein kinase (Homo sapiens) (UniProt P30291). In words: Inhibition of recombinant human Wee1 (214 to end residues) at 10 uM using LSNLYHQGKFLQTFCGSPLYRRR as substrate measured after 40 mins in presence of [gamm33P]ATP by scintillation counting method relative to control.

Each structure is given as a SMILES string. The source made the active and inactive calls. No cut-off for these calls is given here.

What is called ΔTm is the shift of the melting midpoint relative to a reference. The term inhibition denotes the relative decrease from the control value, in per cent.

T1 sequence (Q15561 whole entry, the tested form may be a part): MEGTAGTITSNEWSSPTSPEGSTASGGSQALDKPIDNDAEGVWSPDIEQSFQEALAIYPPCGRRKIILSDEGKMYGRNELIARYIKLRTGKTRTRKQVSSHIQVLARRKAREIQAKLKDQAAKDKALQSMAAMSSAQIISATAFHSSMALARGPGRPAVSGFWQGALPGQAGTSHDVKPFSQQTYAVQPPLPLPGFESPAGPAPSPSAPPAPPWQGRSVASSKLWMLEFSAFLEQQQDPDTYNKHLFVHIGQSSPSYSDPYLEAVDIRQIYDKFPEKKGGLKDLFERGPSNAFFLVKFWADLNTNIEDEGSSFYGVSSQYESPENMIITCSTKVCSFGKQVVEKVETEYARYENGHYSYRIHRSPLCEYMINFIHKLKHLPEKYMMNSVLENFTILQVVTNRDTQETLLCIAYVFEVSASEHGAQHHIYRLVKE
Chain of Platelet-derived growth factor receptor alpha (Homo sapiens) (P16234 whole entry, the tested form may be a part): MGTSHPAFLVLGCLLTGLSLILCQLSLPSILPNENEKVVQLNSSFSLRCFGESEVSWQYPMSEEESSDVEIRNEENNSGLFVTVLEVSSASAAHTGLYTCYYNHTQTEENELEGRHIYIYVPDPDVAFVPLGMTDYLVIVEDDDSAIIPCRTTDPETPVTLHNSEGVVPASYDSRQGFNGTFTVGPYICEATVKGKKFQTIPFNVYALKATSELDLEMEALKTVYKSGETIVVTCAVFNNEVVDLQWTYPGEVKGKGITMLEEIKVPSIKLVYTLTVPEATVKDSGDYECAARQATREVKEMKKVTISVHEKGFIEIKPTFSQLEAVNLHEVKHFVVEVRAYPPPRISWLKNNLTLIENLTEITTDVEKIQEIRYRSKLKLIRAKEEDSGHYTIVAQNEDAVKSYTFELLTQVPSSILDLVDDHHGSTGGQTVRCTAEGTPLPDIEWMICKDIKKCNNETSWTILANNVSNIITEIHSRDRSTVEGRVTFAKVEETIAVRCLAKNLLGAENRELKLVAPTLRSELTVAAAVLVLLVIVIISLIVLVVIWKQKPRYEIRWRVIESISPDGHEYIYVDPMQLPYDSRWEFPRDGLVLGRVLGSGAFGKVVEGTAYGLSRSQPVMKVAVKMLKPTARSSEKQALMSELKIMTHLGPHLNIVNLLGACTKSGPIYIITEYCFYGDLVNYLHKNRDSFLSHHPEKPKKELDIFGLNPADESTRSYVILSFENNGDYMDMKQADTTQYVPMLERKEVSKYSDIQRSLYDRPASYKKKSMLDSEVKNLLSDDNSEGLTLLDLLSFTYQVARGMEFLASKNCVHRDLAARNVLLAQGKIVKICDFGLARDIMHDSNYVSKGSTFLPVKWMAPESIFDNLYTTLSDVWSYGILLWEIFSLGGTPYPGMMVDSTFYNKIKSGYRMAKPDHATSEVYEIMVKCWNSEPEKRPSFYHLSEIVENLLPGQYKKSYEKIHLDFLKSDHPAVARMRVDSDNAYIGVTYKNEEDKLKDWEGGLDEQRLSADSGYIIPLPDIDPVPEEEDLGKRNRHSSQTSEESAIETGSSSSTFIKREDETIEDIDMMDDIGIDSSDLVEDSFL
Chain of Activin receptor type-2A (Homo sapiens) (P27037 whole entry): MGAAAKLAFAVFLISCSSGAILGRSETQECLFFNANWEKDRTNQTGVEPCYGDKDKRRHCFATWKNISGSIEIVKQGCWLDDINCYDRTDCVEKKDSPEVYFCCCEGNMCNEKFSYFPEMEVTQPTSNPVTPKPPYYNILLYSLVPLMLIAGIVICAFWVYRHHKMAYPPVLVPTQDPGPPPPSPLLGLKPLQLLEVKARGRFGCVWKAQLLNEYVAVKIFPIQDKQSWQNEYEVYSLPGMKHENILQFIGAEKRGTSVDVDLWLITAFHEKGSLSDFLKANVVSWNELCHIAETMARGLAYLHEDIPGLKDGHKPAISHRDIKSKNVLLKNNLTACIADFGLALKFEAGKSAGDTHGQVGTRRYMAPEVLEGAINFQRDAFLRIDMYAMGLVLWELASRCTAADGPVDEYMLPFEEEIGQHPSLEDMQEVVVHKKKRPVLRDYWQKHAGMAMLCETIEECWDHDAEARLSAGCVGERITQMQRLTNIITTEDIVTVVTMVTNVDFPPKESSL
Chain of 5'-AMP-activated protein kinase catalytic subunit alpha-2 (Homo sapiens) (P54646 whole entry, looked up): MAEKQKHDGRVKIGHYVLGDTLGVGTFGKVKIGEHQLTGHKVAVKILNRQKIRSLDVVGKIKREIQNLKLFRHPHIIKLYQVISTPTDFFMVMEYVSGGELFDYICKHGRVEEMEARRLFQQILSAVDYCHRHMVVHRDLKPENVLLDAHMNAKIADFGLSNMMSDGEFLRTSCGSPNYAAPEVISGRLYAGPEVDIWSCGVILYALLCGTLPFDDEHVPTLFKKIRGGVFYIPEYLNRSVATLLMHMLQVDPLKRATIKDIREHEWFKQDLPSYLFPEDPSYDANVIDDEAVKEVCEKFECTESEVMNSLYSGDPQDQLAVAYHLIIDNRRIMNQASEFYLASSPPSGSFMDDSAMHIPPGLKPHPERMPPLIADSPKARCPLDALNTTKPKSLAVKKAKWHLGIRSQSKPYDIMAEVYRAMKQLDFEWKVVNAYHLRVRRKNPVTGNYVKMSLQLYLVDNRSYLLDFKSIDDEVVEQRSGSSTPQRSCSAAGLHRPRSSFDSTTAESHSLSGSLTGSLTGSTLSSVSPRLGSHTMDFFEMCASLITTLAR
Chain of Tyrosine-protein kinase ABL1 (Homo sapiens) (P00519 whole entry, the tested form may be a part): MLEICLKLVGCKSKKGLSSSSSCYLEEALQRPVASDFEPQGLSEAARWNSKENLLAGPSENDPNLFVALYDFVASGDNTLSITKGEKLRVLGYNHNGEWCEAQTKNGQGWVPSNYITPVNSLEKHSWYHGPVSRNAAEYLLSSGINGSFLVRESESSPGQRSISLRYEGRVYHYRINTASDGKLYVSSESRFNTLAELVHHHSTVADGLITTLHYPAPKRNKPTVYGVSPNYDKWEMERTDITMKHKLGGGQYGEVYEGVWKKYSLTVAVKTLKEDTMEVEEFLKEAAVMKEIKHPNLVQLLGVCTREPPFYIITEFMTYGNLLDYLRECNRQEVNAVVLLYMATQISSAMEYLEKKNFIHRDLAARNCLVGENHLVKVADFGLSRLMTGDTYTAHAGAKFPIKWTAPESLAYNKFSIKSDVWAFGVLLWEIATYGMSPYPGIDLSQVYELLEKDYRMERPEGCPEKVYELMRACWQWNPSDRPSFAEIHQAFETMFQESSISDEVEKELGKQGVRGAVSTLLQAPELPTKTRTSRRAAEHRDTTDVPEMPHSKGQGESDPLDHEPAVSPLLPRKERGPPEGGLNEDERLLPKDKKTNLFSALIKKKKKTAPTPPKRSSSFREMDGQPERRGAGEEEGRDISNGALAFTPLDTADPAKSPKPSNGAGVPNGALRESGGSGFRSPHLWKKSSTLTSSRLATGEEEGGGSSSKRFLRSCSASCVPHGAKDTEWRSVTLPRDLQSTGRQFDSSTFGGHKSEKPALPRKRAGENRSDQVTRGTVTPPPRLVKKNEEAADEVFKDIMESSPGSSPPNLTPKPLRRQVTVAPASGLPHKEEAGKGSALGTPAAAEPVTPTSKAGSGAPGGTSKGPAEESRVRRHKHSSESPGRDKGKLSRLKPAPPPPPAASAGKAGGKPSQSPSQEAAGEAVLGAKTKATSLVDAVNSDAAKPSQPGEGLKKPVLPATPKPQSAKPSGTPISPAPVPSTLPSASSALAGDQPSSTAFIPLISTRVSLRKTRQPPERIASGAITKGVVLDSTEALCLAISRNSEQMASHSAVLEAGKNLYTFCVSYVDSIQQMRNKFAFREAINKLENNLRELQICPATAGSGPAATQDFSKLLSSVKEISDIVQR
Chain of Serine/threonine-protein kinase Nek1 (Homo sapiens) (Q96PY6 whole entry, the tested form may be a part): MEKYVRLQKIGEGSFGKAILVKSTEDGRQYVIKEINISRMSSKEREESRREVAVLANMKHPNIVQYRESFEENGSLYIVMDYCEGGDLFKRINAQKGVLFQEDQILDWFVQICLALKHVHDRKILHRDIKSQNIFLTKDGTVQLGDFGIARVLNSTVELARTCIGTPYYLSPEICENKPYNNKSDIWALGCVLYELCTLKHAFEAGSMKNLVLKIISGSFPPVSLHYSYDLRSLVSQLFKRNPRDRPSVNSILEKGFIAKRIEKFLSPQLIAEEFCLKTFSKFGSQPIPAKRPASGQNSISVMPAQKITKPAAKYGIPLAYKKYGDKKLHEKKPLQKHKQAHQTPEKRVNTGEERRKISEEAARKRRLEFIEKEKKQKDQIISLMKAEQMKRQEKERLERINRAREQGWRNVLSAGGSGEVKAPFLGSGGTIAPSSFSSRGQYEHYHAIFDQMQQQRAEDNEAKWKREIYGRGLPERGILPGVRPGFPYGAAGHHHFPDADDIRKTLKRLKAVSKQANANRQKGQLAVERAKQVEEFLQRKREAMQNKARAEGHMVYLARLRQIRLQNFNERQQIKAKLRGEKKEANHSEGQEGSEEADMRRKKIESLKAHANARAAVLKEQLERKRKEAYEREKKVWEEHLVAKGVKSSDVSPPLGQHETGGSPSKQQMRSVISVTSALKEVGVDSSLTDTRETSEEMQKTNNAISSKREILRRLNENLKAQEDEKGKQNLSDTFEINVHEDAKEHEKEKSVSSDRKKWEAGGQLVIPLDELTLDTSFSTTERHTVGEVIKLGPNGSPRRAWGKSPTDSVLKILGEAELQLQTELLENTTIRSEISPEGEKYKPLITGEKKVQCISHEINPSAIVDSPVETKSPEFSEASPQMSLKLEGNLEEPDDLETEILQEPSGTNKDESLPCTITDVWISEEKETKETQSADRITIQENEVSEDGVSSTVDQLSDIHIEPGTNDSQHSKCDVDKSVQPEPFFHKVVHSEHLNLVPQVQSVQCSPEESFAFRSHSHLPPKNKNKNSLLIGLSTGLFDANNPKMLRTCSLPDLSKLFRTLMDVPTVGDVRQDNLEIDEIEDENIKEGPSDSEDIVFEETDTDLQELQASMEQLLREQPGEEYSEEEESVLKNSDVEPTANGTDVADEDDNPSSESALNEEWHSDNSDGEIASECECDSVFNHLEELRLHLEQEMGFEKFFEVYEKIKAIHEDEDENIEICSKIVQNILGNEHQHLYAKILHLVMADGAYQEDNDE
Chain of Transcriptional enhancer factor TEF-3 (Homo sapiens), Q15561 [C330A] (Q15561 whole entry C330A): as the sequence (Q15561 whole entry, the tested form may be a part) above, with C330A counted along it

On to `C=CS(=O)(=O)Nc1ccc(Cc2ccc3ccccc3c2)cc1`, for which the ΔTm was found to be 7.5 °C in experiment [1] and 6.4 °C in experiment [2]. For the same compound, the inhibition result in the experiment filed under Homo sapiens [3] is “Dose-dependent effect”; in experiment [5], 6%; in the experiment filed under Homo sapiens [6], -6%; in experiment [7], 4%; in the experiment filed under Homo sapiens [8], -2%; in experiment [9] it was 5%. The inhibition was -8% in [10]; 5% in experiment [11]; 1% in experiment [12]; -6% in [13]; 1% in experiment [14]; 3% in experiment [15]. Moreover, the inhibition in the experiment filed under Homo sapiens [16] was 13%; in [17] it was -10%; in [18] it was 2%; in experiment [19], 5%; in experiment [20] it was -5%; in [21], 7%. Further, the inhibition in experiment [22] was 7%; in experiment [23], 3%; in experiment [24] it was -4%. The inhibition result in [4] was “Active”.
